# Results from US4455303A, “Renin inhibitors” (priority 1983, dated 1984).
# Like-named read-outs stand apart in the source and are kept apart here. Where a SMILES comes first, the peptide text is derived from it. Where no end group is shown, it is not given here. [ ]: non-standard residue; d: D form. Phe(4-Cl) = N[C@@H](Cc1ccc(Cl)cc1)C(=O)O
# Columns and labels:
# [1] = test system: renin dependent hypertension; assay: Acute renovascular hypertension model, inflatable aortic cuff, monkey; type: in vivo, Macaca fascicularis; conditions: one monkey, cuff inflated
# Procedure: The animal model of acute renovascular hypertension is prepared by surgically implanting an inflatable cuff about the aorta above the left kidney of an adult Macaca fascicularis as descirbed by Cody, R. J. et al (1980) Hypertension. The right kidney is subsequently removed and catheters implanted in the right iliac vein and artery. Two arterial catheters lead from above and below the constricting cuff to strain gauges permit blood pressure to be measured both above and below the cuff.
# Inflation of the cuff creates a measurable amount of ischemia to the remaining kidney and renin dependent hypertension develops in about one hour.
# The results of the injection of (RI-78) on the blood pressure and plasma renin level of one monkey are summarized below. The converting enzyme inhibitor teprotide (Ondetti et al, 19) is used as a control.
# human renin = target: T1, human renin (Homo sapiens, UniProt P00797); assay: IC50 on human renin, angiotensin I generation from tetradecapeptide renin substrate (assay of Burton et al); type: biochemical
# T1 sequence (P00797 67-406): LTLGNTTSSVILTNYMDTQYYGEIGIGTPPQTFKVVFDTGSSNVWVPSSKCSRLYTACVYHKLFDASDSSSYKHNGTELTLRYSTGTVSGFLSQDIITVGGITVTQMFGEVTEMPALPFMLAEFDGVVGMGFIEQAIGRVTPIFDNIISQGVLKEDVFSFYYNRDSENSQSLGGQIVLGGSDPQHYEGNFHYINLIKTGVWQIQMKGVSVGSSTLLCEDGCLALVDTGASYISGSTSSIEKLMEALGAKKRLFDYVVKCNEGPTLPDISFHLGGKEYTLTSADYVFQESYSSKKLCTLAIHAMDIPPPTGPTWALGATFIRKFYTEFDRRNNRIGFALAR
# Procedure: The assay for testing the inhibitory activities of the pentapeptides on renin is described in Burton, J. et al, Biochem. 14: 3892-3898 (1975), which is herein incorporated by reference.
# The 11 pentapeptides shown in Table I were synthesized by standard solid phase peptide synthesis as shown in the description following the table and the IC50 (concentration at which inhibition is 50%) value on human renin in the assay of Burton et al, supra, was determined for each sample.
# Angiotensin I standards and tetradecapeptide renin substrate (TDP) were obtained from Peninsula Laboratories Inc. (San Mateo, CA). Renin was a gift of Dr. E. Slater (1980). Angiotensin I concentration was determined by radioimmunoassay using a commercially available kit (Clinical Assays, Cambridge, MA).
# Standard renin solution (V3) is diluted 4-fold with M Tris-lysozyme buffer (pH 7.40). Concentration of […] of the renin inhibitor being tested are also prepared in the Tris-lysozyme buffer. For the uninhibited reaction Tris-lysozyme buffer alone is used in place of the inhibitor solution.
# Reaction mixtures containing TDP solution ([…], 25 µM), renin solution (50 liters, 20-fold diluted), and the inhibitor (50 liters, 50-1000 M) were incubated for 1 hr at 37°, diluted 1000-fold and assayed for angiotensin I.
# Inhibition is determined by the following equation:
# % Inh.=((ng ANG Iunhib -ng ANG Iinh)/ng ANG
# IC50 is determined by plotting Percent inhibition (% Inh.) against the inhibitor concentration and interpolating to determine the molarity of inhibitor at which 50% inhibition is observed.
# Cross-reactivity of TDP with ANG I is less than 0.05%.
# isolated gut section = assay: In vitro transport of radiolabeled pentapeptide across isolated gut section; type: in vitro ADME; conditions: radiolabeled pentapeptide added to one side of an isolated gut section, label measured on the other side
# From the text: Of particular interest is the fact that the peptides of the present invention are short chained, and can potentially be used as orally active peptides.
# renin = conditions: pH 7.4; Poulsen et al 1973; read-out: inhibitory constant (KI); cited from earlier work
# [2] = IC50 (concentration at which inhibition is 50%), Table I, human renin
# [3] = IC50, TDP substrate, pH 7.40, 1 hr at 37°
# [4] = Table I, human renin, read-out: IC50 (concentration at which inhibition is 50%)
# [5] = printed with the characterisation data of each peptide, TDP substrate, pH 7.40, 1 hr at 37°, read-out: IC50
# [6] = time 145 min, injection of teprotide (control)
molecule,measurement,setting,value
"CC(C)[C@H](NC(=O)[C@H](Cc1ccccc1)NC(=O)[C@@H](N)Cc1ccc(Cl)cc1)C(=O)N[C@@H](Cc1ccc(O)cc1)C(=O)N[C@@H](CCCCN)C(N)=O [RI-78, 4-chlorophenylalanylphenylalanylvalyltyrosyllysine-amide] (H-[Phe(4-Cl)]FVYK-NH2)",Blood Pressure,"[1]; time 0 min, injection 0.5 mg RI-78",113 mm Hg
same,Blood Pressure,"[1]; time 10 min, injection 2.5 mg RI-78",65 mm Hg
same,Blood Pressure,"[1]; time 25 min (15 min after 2.5 mg RI-78), no further injection",111 mm Hg
same,Plasma Renin Activity,"[1]; time 30 min (20 min after 2.5 mg RI-78), no further injection",28.5
same,IC50,human renin; [2],70 µM
same,IC50,human renin; [3],70 µM
"FFVYK-NH2 [RI-77, Phenylalanylphenylalanylvalyltyrosyllysine-amide]",IC50,human renin; [2],80 µM
"YFVYK-NH2 [RI-79, Tyrosylphenylalanylvalyltyrosyllysine-amide]",IC50,human renin; [4],140 µM
same,IC50,human renin; [5],50 µM
"CC(C)[C@H](NC(=O)[C@H](Cc1ccc(Cl)cc1)NC(=O)[C@@H](N)Cc1ccccc1)C(=O)N[C@@H](Cc1ccc(O)cc1)C(=O)N[C@@H](CCCCN)C(N)=O [RI-80, Phenylalanyl-4-chlorophenylalanylvalyltyrosyllysineamide] (H-F[Phe(4-Cl)]VYK-NH2)",transport across the gut,isolated gut section,transported across the gut
same,IC50,human renin; [4],40 µM
"COc1ccc(C[C@H](NC(=O)[C@@H](N)Cc2ccccc2)C(=O)N[C@H](C(=O)N[C@@H](Cc2ccc(O)cc2)C(=O)N[C@@H](CCCCN)C(N)=O)C(C)C)cc1 [RI-102, Phenylalanyl-O-methyltyrosylvalyltyrosyllysine-amide] (H-FY(Me)VYK-NH2)",IC50,human renin; [2],190 µM
"FFVFK-NH2 [RI-84, Phenylalanylphenylalanylvalylphenylalanyllysine-amide]",IC50,human renin; [2],750 µM
"FFTYK-NH2 [RI-83, Phenylalanylphenylalanylthreonyltyrosyllysine-amide]",IC50,human renin; [2],3750 µM
Phenylalanylphenylalanyl-threo-3-chloro-L-2-amino-butyryltyrosyllysine amide [RI-82],IC50,human renin; [4],1250 µM
same,IC50,human renin; [5],2450 µM
Leu-Leu-Val-TyrH2,Ki,renin,1020 µM
"CC[C@H](C)[C@H](NC(=O)[C@H](CCC(N)=O)NC(=O)[C@@H]1CCCN1C(=O)[C@H](CCCNC(=N)N)NC(=O)[C@@H]1CCCN1C(=O)[C@H](Cc1c[nH]c2ccccc12)NC(=O)[C@@H]1CCC(=O)N1)C(=O)N1CCC[C@H]1C(=O)N1CCC[C@H]1C(=O)O [Teprotide, teprotide, reference compound]",Blood Pressure,[1]; [6],76 mm Hg
same,Plasma Renin Activity,[1]; [6],≥ 37
"FYVYK-NH2 [RI-81, Phenylalanyltyrosylvalyltyrosyllysine-amide]",IC50,human renin; [2],80 µM
same,IC50,human renin; [3],150 µM
"CC(C)[C@H](NC(=O)[C@H](Cc1ccccc1)NC(=O)[C@@H](N)Cc1ccccc1)C(=O)N[C@@H](Cc1ccc(Cl)cc1)C(=O)N[C@@H](CCCCN)C(N)=O [RI-85, Phenylalanylphenylalanylvalyl-4-chlorophenylalanyllysine-amide] (H-FFV[Phe(4-Cl)]K-NH2)",IC50,human renin; [2],~100 µM
same,IC50,human renin; [3],175 µM
